Experimental data published in patent US9573913B2, “Cathepsin cysteine protease inhibitors” (Merck Sharp & Dohme Corp., priority 2013, dated 2017).

Key:
[1] = biological target: human cathepsin K (UniProt P43236); assay: Cathepsin K Assay (hrbCat K); format: biochemical; conditions: Z-Leu-Arg-AMC substrate, pH 5.5, 15 min preincubation; read-out: hrbCat K (IP (nM))
In short: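 Human cathepsin K (0.4 nM) was preincubated 15 min at room temperature with compound in 50 mM MES pH 5.5, 2.5 mM EDTA, 2.5 mM DTT and 10% DMSO. Inhibition was fitted to a dose-response model.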

[2] = biological target: T1, human cathepsin F (Homo sapiens, UniProt Q9UBX1); assay: Cathepsin F assay (hCat F); format: biochemical; conditions: Z-Phe-Arg-AMC substrate, pH 5.5, 15 min preincubation; read-out: hCat F (IP (nM))
T1 sequence (Q9UBX1 271-484): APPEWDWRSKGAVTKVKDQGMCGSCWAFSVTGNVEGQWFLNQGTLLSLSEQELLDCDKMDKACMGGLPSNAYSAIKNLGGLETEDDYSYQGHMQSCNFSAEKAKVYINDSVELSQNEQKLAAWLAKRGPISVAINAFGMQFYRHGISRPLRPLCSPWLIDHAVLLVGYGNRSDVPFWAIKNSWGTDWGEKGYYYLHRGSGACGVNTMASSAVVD
In short: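 Enzyme (10 nM) was preincubated 15 min at room temperature with compounds (1/3 DMSO dilution series, 500–0.025 μM) in 50 mM MES pH 5.5, 2.5 mM EDTA, 2.5 mM DTT, 10% DMSO. Z-Phe-Arg-AMC (8 μM) was added and AMC fluorescence (Ex 360/Em 460 nm) followed for 20 min. % inhibition was fitted to dose-response curves.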

Structure (SMILES)	IC50 [1] [nM]	IC50 [2] [nM]
N#CC1(NC(=O)[C@@H]2CCCC[C@H]2c2nc(Nc3ccc(F)cc3)sc2-c2ccc(N3CCS(=O)(=O)CC3)cc2)CC1 [Example 180, (1R,2R)-N-(1-cyanocyclopropyl)-2-(5-(4-(1,1-dioxidothiomorpho-lino)phenyl)-2-((4-fluorophenyl)amino)thiazol-4-yl)cyclohexane-carboxamide]	43.3	1000
N#CC1(NC(=O)[C@@H]2CCCC[C@H]2c2nc(Nc3ccc(F)cc3F)sc2-c2ccc(N3CCS(=O)(=O)CC3)cc2)CC1 [Example 181, (1R,2R)-N-(1-cyanocyclopropyl)-2-(2-((2,4-difluorophenyl)amino)-5-(4-(1,1-dioxidothiomorpho-lino)phenyl)thiazol-4-yl)cyclohexane-carboxamide]	31.9	3490
N#CN=S1(=O)CCN(c2ccc(-c3sc(-c4ccc(F)cc4)nc3[C@@H]3CCCC[C@H]3C(=O)NC3(C#N)CC3)cc2)CC1 [Example 182, (1R,2R)-N-(1-cyanocyclopropyl)-2-(5-(4-(1-(cyanoimino)-1-oxidothiomorpholino)phenyl)-2-(4-fluorophenyl)thiazol-4-yl)cyclohexane-carboxamide]	2.72	3330
N#CC1(NC(=O)[C@@H]2CCCC[C@H]2c2nc(C(F)(F)c3ccccc3)sc2-c2ccc(N3CCS(=O)(=O)CC3)cc2)CC1 [Example 183, (1R,2R)-N-(1-cyanocyclopropyl)-2-(2-(difluoro(phenyl)methyl)-5-(4-(1,1-dioxidothiomorpho-lino)phenyl)thiazol-4-yl)cyclohexane-carboxamide]	5.7	810

Next, values leading:

IC50 [1] [nM]	IC50 [2] [nM]	Structure (SMILES)
5.2	1580	N#CC1(NC(=O)[C@@H]2CCCC[C@H]2c2nc(C3(c4ccc(F)cc4)CC3)sc2-c2ccc(N3CCS(=O)(=O)CC3)cc2)CC1 [Example 184, (1R,2R)-N-(1-cyanocyclopropyl)-2-(5-(4-(1,1-dioxidothiomorpho-lino)phenyl)-2-(1-(4-fluorophenyl)cyclo-propyl)thiazol-4-yl)cyclohexane-carboxamide]
5.1	788	N#CC1(NC(=O)[C@@H]2CCCC[C@H]2c2nc(Oc3ccc(F)cc3)sc2-c2ccc(N3CCS(=O)(=O)CC3)cc2)CC1 [Example 189, (1R,2R)-N-(1-cyanocyclopropyl)-2-(5-(4-(1,1-dioxidothiomorpho-lino)phenyl)-2-(4-fluorophenoxy)thia-zol-4-yl)cyclohexane-carboxamide]
13.2	7410	N#CC1(NC(=O)[C@@H]2CCCC[C@H]2c2nc(N)sc2-c2ccc(N3CCS(=O)(=O)CC3)cc2)CC1 [Example 190, (1R,2R)-2-(2-amino-5-(4-(1,1-dioxidothiomorpho-lino)phenyl)thiazol-4-yl)-N-(1-cyanocyclopropyl) cyclohexanecarbox-amide]
1.4	1940	Cc1ccc(-c2nc([C@@H]3CC[C@H](F)C[C@H]3C(=O)N[C@@H](C)C#N)c(-c3ccc(N4CCS(=O)(=O)CC4)cc3)s2)nn1 [Example 195, (1R,2R,5S)-N-((S)-1-cyanoethyl)-2-(5-(4-(1,1-dioxidothiomorpho-lino)phenyl)-2-(6-methylpyridazin-3-yl)thiazol-4-yl)-5-fluorocyclohexane-carboxamide]
2.4	2020	Cc1ccc(-c2nc([C@@H]3CC[C@H](F)C[C@H]3C(=O)NC3(C#N)CC3)c(-c3ccc(N4CCS(=O)(=O)CC4)cc3)s2)nn1 [Example 196, (1R,2R,5S)-N-(1-cyanocyclopropyl)-2-(5-(4-(1,1-dioxidothiomorpho-lino)phenyl)-2-(6-methylpyridazin-3-yl)thiazol-4-yl)-5-fluorocyclohexane-carboxamide]
512	≥ 10000	N#CC1(NC(=O)[C@@H]2C[C@@H](F)CC[C@H]2c2nc(-c3ccc(C(F)(F)F)nn3)sc2-c2ccc(N3CCS(=O)(=O)CC3)cc2)CC1 [Example 197, (1R,2R,5S)-N-(1-cyanocyclopropyl)-2-(5-(4-(1,1-dioxidothiomorpho-lino)phenyl)-2-(6-(trifluoromethyl)pyridazin-3-yl)thiazol-4-yl)-5-fluorocyclohexane-carboxamide]
